Assay results published in PubChem BioAssay AID1963869 (Molecular Pharmacology Branch, DTP, NCI, 2024).
Where “and” joins values, the source holds several entries; their conditions need not be identical. Equal entries are not always repeated.

Tested on: KRAS patient-derived spheroids with HUVEC/MSC, viability
Experiment: Anticancer human tumor 323965-272-R-J2-PDC patient-derived pancreatic carcinoma cell line growth inhibition [KRAS2]
Conditions: for viability, T/C: stronger effect = lower value
Source text: Multicellular complex tumor spheroid response to RAS pathway inhibitors in combination with a targeted agents in patient-derived cell lines with oncogenic KRAS variants from multiple cancer types
A high-throughput screen of multi-cell type tumor spheroids was designed to identify active combinations of targeted small molecules and KRAS pathway inhibitors. Complex spheroids include a stromal component modeled by human endothelial cells (HUVEC) and fibroblasts modeled by human mesenchymal stem cells (MSCs). The concentration ranges selected for each drug and investigational agent were based upon clinically achievable concentrations if the clinical Cmax of the agent was known.
Compounds. The drugs and investigational agents: BI-3406 (NSC825286), BAY-293 (NSC824723), batoprotafib (TNO155; NSC825523), sotorasib (AMG 510; NSC818433), MRTX1257 (NSC819558), elimusertib (BAY 1895344; NSC800525), molibresib (GSK525762; NSC774829), temuterkib (LY3214996; NSC803410), venetoclax (NSC766270), alisertib (NSC759677), olaparib (NSC753686), talazoparib (NSC767125), erdafitinib (NSC781556), ipatasertib (NSC767898), cabozantinib (NSC761068), nintedanib (NSC756659), abemaciclib (NSC768073), docetaxel (NSC628503), trametinib (NSC758246), and sapanisertib (NSC764658) were obtained from the National Cancer Institute (NCI) Developmental Therapeutics Program Chemical Repository. The FDA-approved anticancer drug set is available from the Developmental Therapeutics Program. […] The stock solutions were prepared in dimethyl sulfoxide (DMSO, Sigma-Aldrich, St. Louis, MO, cat. D2650) at 800-fold the tested concentration and stored at -70 degrees C prior to their use. All drugs and investigational agents were tested over a range starting from a high concentration at or near the clinical Cmax and decreasing in half-log increments. If the clinical Cmax for an agent had not been determined, the highest concentration tested was 10 microM.
Cell Culture. All cells were maintained in an incubator at 37 degrees C and 5% CO2 with 95% humidity. The PDC lines were cultured according to standard operating procedures established by the NCI PDMR (https://pdmr.cancer.gov/sops/default.htm). Briefly, all PDCs were thawed and cultured in Matrigel-coated flasks prepared with a working solution of 1X Ham's F-12 nutrient mix, without supplementation (Invitrogen, Waltham, MA, cat. 11765054), 100 U/mL penicillin-streptomycin (Invitrogen, cat. 15140122), and 2.5% Matrigel (Corning Inc., Corning, NY, cat. 354248) for the first three passages. All PDCs were cultured in complete DMEM/F-12 media containing advanced DMEM/F-12 (Invitrogen, cat. 12634028), 4.9% defined fetal bovine serum, heat inactivated (HyClone Laboratories Inc., Logan, UT, cat. SH30070.03HI), 389 ng/mL hydrocortisone (Sigma-Aldrich, cat. H4001), 9.7 ng/mL human EGF recombinant protein (Invitrogen, cat. PHG0313), 23.4 microg/mL adenine (Sigma-Aldrich, cat. A2786), 97.3 U/mL penicillin-streptomycin (Invitrogen, cat. 15140122), 1.9 mM L-glutamine (Invitrogen, cat. 25030081), and 9.7 microM Y-27632 dihydrochloride (Tocris Bioscience, Bristol, United Kingdom, cat. 1254). The PDCs were cultured in complete DMEM/F12 media without 9.7 microM Y-27632 dihydrochloride for at least two passages prior to the screen. The established cell line HOP-62 was cultured in RPMI 1640 medium, HEPES (Invitrogen, cat. 22400105) with 10% defined fetal bovine serum (HyClone Laboratories Inc., cat. SH30070.03) and 2 mM L-glutamine (Invitrogen, cat. 25030081). The pooled donor HUVEC were cultured in endothelial cell growth medium 2 (PromoCell, Heidelberg, Germany, cat. C-22011) and the hMSC were cultured in mesenchymal stem cell growth medium 2 (PromoCell, cat. C-28009). For all experiments, HUVEC and hMSC were used at passages </=5, while the malignant cell lines were used at passages </=15. […]

[1] = compound alone, run of 08/26/2021
[2] = compound alone, run of 09/02/2021
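Further: spheroids exposed to agents for 7 days.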
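Wherever viability, T/C is given: 100% = DMSO vehicle control viability.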

SMILES | viability, T/C (compound 0.0316 µM) | viability, T/C (compound 0.1 µM) | viability, T/C (compound 1 µM) | IC50 [1] | IC50 [2] | viability, T/C (compound 0.0001 µM) | viability, T/C (compound 0.000316 µM) | viability, T/C (compound 0.001 µM) | viability, T/C (compound 0.00316 µM) | viability, T/C (compound 0.01 µM) | IC50 (curve of compound) | viability, T/C (compound 0.316 µM) | viability, T/C (compound 3.16 µM) | viability, T/C (compound 10 µM)
C=CC(=O)N1CCN(c2nc(OCC3CCCN3C)nc3c2CCN(c2cccc4cccc(C)c24)C3)CC1CC#N (centres undefined) | 70.1% [middle of 17 runs] | 60.4% [middle of 17 runs] | 57.9% [middle of 17 runs] | 1.07 µM [middle of 5 runs] | 1.12 µM [middle of 6 runs] |  |  |  |  |  |  |  |  | 
CC(=O)Nc1cccc(-n2c(=O)n(C3CC3)c(=O)c3c(Nc4ccc(I)cc4F)n(C)c(=O)c(C)c32)c1 | 31.2% [middle of 5 runs] |  |  |  |  | 98.3% [middle of 5 runs] | 90.7% [middle of 5 runs] | 76.2% [middle of 5 runs] | 57.5% [middle of 5 runs] | 44.7% [middle of 5 runs] | 5.93 nM [middle of 5 runs] |  |  | 
CC(=O)OC12COC1CC(O)C1(C)C(=O)C(O)C3=C(C)C(OC(=O)C(O)C(NC(=O)OC(C)(C)C)c4ccccc4)CC(O)(C(OC(=O)c4ccccc4)C21)C3(C)C (centres undefined) | 35.4% [middle of 5 runs] | 32.5% [middle of 5 runs] | 34% [middle of 5 runs] |  |  |  |  |  |  | 35.9% [middle of 5 runs] | < 0.01 µM | 36.5% [middle of 5 runs] | 34.3% [middle of 5 runs] | 
CC(C)NCC(C(=O)N1CCN(c2ncnc3c2C(C)CC3O)CC1)c1ccc(Cl)cc1 (centres undefined) | 97.7% [middle of 5 runs] | 94% [middle of 5 runs] | 64.6% [middle of 5 runs] |  |  |  |  |  |  |  | 2.93 µM [middle of 5 runs] | 84.9% [middle of 5 runs] | 50.4% [middle of 5 runs] | 41.8% [middle of 5 runs]
CC(C)n1nc(-c2ccc3oc(N)nc3c2)c2c(N)ncnc21 | 24.4% [middle of 5 runs] | 21.4% [middle of 5 runs] |  |  |  |  | 91% [middle of 5 runs] | 81.3% [middle of 5 runs] | 54.4% [middle of 5 runs] | 33.1% [middle of 5 runs] | 4 nM [middle of 5 runs] |  |  | 
CC1(C)CCC(CN2CCN(c3ccc(C(=O)NS(=O)(=O)c4ccc(NCC5CCOCC5)c([N+](=O)[O-])c4)c(Oc4cnc5[nH]ccc5c4)c3)CC2)=C(c2ccc(Cl)cc2)C1 | 100% [middle of 5 runs] | 94.9% [middle of 5 runs] | 96.1% [middle of 5 runs] |  |  |  |  |  |  |  | 1.99 µM [middle of 5 runs] | 98% [middle of 5 runs] | 21% [middle of 5 runs] | 7.62% [middle of 5 runs]
CC1COCCN1c1cc(-c2ccnn2C)c2ccnc(-c3ccn[nH]3)c2n1 (centres undefined) | 39.8% [middle of 5 runs] | 25.1% [middle of 5 runs] | 20.6% [middle of 5 runs] |  |  |  |  |  |  | 77.9% [middle of 5 runs] | 23.8 nM [middle of 5 runs] | 21.9% [middle of 5 runs] | 18.9% [middle of 5 runs] | 
CC1OCC2(CCN(c3cnc(Sc4ccnc(N)c4Cl)c(N)n3)CC2)C1N (centres undefined) | 77.5% and 85.9% and 85.1% |  |  | 785 nM [middle of 5 runs] | 535 nM [middle of 6 runs] |  |  |  |  |  | 1.1 µM [middle of 5 runs] | 60% [middle of 19 runs] |  | 
CCN1CCN(Cc2ccc(Nc3ncc(F)c(-c4cc(F)c5nc(C)n(C(C)C)c5c4)n3)nc2)CC1 | 76.6% [middle of 5 runs] | 61% [middle of 5 runs] | 62.6% [middle of 5 runs] |  |  |  |  |  | 93.4% [middle of 5 runs] |  | > 1 µM | 62.1% [middle of 5 runs] |  | 
CCNC(=O)CC1N=C(c2ccc(Cl)cc2)c2cc(OC)ccc2-n2c(C)nnc21 (centres undefined) | 97.2% [middle of 5 runs] | 83.4% [middle of 5 runs] | 44.5% [middle of 5 runs] |  |  |  |  |  |  |  | 798 nM [middle of 5 runs] | 62.2% [middle of 5 runs] | 39.8% [middle of 5 runs] | 36.7% [middle of 5 runs]
CN(C)C/C=C/C(=O)Nc1cc2c(Nc3ccc(F)c(Cl)c3)ncnc2cc1O[C@H]1CCOC1 | 74.5% [middle of 5 runs] | 73.5% [middle of 5 runs] |  |  |  |  | 99% [middle of 5 runs] | 97.1% [middle of 5 runs] | 89.2% [middle of 5 runs] | 81% [middle of 5 runs] | > 0.1 µM |  |  | 
COc1cc(Nc2ncc3c(n2)-c2ccc(Cl)cc2C(c2c(F)cccc2OC)=NC3)ccc1C(=O)O | 91.7% [middle of 5 runs] | 72.2% [middle of 5 runs] | 51.5% [middle of 5 runs] |  |  |  |  |  |  |  | 10 µM and > 10 µM | 45.2% [middle of 5 runs] | 65.7% [middle of 5 runs] | 69% [middle of 5 runs]
COc1cc(OC)cc(N(CCNC(C)C)c2ccc3ncc(-c4cnn(C)c4)nc3c2)c1 | 102% [middle of 5 runs] | 101% [middle of 5 runs] | 103% [middle of 5 runs] |  |  |  |  |  |  |  | > 10 µM | 102% [middle of 5 runs] | 105% [middle of 5 runs] | 87.5% [middle of 5 runs]
COc1cc2nccc(Oc3ccc(NC(=O)C4(C(=O)Nc5ccc(F)cc5)CC4)cc3)c2cc1OC | 100% [middle of 5 runs] | 104% [middle of 5 runs] | 104% (2×) and 101% (2×) and 99.7% |  |  |  |  |  |  |  | > 10 µM | 96.2% [middle of 5 runs] | 92.9% [middle of 5 runs] | 87.7% [middle of 5 runs]
Cn1nccc1Nc1nccc(-c2cc3c(s2)C(C)(C)N(CCN2CCOCC2)C3=O)n1 | 92.9% [middle of 5 runs] | 87.8% [middle of 5 runs] | 61.5% [middle of 5 runs] |  |  |  |  |  |  |  | 2.35 µM [middle of 5 runs] | 77.6% [middle of 5 runs] | 43.7% [middle of 5 runs] | 38.1% [middle of 5 runs]
Cn1ncnc1[C@H]1c2n[nH]c(=O)c3cc(F)cc(c23)N[C@@H]1c1ccc(F)cc1 | 101% [middle of 4 runs] | 89.2% [middle of 4 runs] |  |  |  |  | 107% [middle of 4 runs] | 104% [middle of 4 runs] | 109% (2×) and 98.1% and 107% | 101% [middle of 4 runs] | > 0.1 µM |  |  | 
O=C(c1cc(Cc2n[nH]c(=O)c3ccccc23)ccc1F)N1CCN(C(=O)C2CC2)CC1 | 102% [middle of 5 runs] | 102% [middle of 5 runs] | 100% [middle of 5 runs] |  |  |  |  |  |  |  | > 10 µM | 96.4% [middle of 5 runs] | 92.1% [middle of 5 runs] | 59.7% [middle of 5 runs]
